We go through 20 compounds from patent publication US10745382B2 (BRISTOL-MYERS SQUIBB COMPANY, priority 2015, dated 2020).

The structures appear in SMILES notation. Counter-ions that a name gives are not always drawn.

T1 sequence (Q9NZQ7 with tags, fused parts or gaps): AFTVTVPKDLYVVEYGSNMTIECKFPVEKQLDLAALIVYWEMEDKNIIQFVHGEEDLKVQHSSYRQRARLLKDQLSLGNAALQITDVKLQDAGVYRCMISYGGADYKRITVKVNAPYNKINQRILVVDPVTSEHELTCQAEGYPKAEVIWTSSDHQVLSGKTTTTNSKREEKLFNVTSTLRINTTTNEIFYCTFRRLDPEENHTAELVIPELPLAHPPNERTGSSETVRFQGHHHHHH

The experiment concerns the target T1, PD-1/PD-L1 (Homo sapiens, UniProt Q9NZQ7).
T1 construct: made in house; host or cells: HEK293T
In words: PD-1/PD-L1 Homogenous Time-Resolved Fluorescence (HTRF) binding assay. Particulars: PD-L1-His 10 nM, PD-1-Ig 20 nM; value given as range class; read-out: Range or IC50. In outline:
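Binding was measured by HTRF in dPBS with 0.1% BSA and 0.05% Tween-20. Detection used europium cryptate anti-Ig (1 nM final) and APC anti-His (20 nM final) added over the binding reaction.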
Consider `Cc1c(COc2cc(OCc3cncc(C#N)c3)c(CN3CCCC[C@H]3C(=O)O)cc2Cl)cccc1-c1cccc(OCCCN2[C@@H]3CC[C@H]2CC(O)C3)c1C` (stereo partly drawn) [Example 3048, (2S)-1-(5-chloro-2-((5-cyanopyridin-3-yl)methoxy)-4-((3′-(3-((1R,5S)-3-hydroxy-8-azabicyclo[3.2.1]octan-8-yl)propoxy)-2,2′-dimethyl-[1,1′-biphenyl]-3-yl)methoxy)benzyl)piperidine-2-carboxylic Acid], for which the IC50 lay in the range of 0.21 to 10 nM.
The result for `Cc1c(COc2cc(OCc3cncc(C#N)c3)c(CN3CCCC[C@H]3C(=O)O)cc2Cl)cccc1-c1cccc(OCCCN2C[C@@H](C)O[C@@H](C)C2)c1C` [Example 3049, (S)-1-(5-chloro-2-((5-cyanopyridin-3-yl)methoxy)-4-((3′-(3-((2S,6R)-2,6-dimethylmorpholino)propoxy)-2,2′-dimethyl-[1,1′-biphenyl]-3-yl)methoxy)benzyl)piperidine-2-carboxylic Acid] reads 0.21 to 10 nM.
The result for `Cc1c(COc2cc(OCc3cncc(C#N)c3)c(CN3CCCC[C@H]3C(=O)O)cc2Cl)cccc1-c1cccc(OCCCN2CCOCC2CO)c1C` (stereo partly drawn) [Example 3050, (2S)-1-(5-chloro-2-((5-cyanopyridin-3-yl)methoxy)-4-((3′-(3-(3-(hydroxymethyl)morpholino)propoxy)-2,2′-dimethyl-[1,1′-biphenyl]-3-yl)methoxy)benzyl)piperidine-2-carboxylic Acid] reads 0.21 to 10 nM; that for `Cc1c(COc2cc(OCc3cncc(C#N)c3)c(CN3CCCC[C@H]3C(=O)O)cc2Cl)cccc1-c1cccc(OCCCN2[C@@H]3CC[C@H]2COC3)c1C` [Example 3051, (S)-1-(4-((3′-(3-((1R,5S)-3-oxa-8-azabicyclo[3.2.1]octan-8-yl)propoxy)-2,2′-dimethyl-[1,1′-biphenyl]-3-yl)methoxy)-5-chloro-2-((5-cyanopyridin-3-yl)methoxy)benzyl)piperidine-2-carboxylic Acid], 0.21 to 10 nM.
In the case of `Cc1c(COc2cc(OCc3cncc(C#N)c3)c(CN3CCCC[C@H]3C(=O)O)cc2Cl)cccc1-c1cccc(OCCCN2C3COCC2COC3)c1C` [Example 3052, (S)-1-(4-((3′-(3-((1s,5s)-3,7-dioxa-9-azabicyclo[3.3.1]nonan-9-yl)propoxy)-2,2′-dimethyl-[1,1′-biphenyl]-3-yl)methoxy)-5-chloro-2-((5-cyanopyridin-3-yl)methoxy)benzyl)piperidine-2-carboxylic Acid] it was 0.21 to 10 nM.
Take `COC(=O)[C@@H]1CCCCN1Cc1cc(Cl)c(OCc2cccc(-c3cccc(OCCCN4CCOCC4)c3C)c2C)cc1OCc1cccc(C#N)c1` [Example 3053, (S)-methyl 1-(5-chloro-2-((3-cyanobenzyl)oxy)-4-((2,2′-dimethyl-3′-(3-morpholinopropoxy)-[1,1′-biphenyl]-3-yl)methoxy)benzyl)piperidine-2-carboxylate, 2 TFA]: the IC50 was 100 to 2000 nM.
In the case of `Cc1c(COc2cc(OCc3cccc(C#N)c3)c(CN3CCCC[C@H]3C(=O)O)cc2Cl)cccc1-c1cccc(OCCCN2[C@@H]3CC[C@H]2COC3)c1C` [Example 3055, (S)-1-(4-((3′-(3-((1R,5S)-3-oxa-8-azabicyclo[3.2.1]octan-8-yl)propoxy)-2,2′-dimethyl-[1,1′-biphenyl]-3-yl)methoxy)-5-chloro-2-((3-cyanobenzyl)oxy)benzyl)piperidine-2-carboxylic Acid] it was 0.21 to 10 nM; in that of `Cc1c(COc2cc(OCc3cncc(C#N)c3)c(CN3CCCC[C@H]3C(=O)O)cc2Cl)cccc1-c1cccc(OCCCN2CCOC(c3ccccc3)C2)c1C` (stereo partly drawn) [Example 3056, (2S)-1-(5-chloro-2-((5-cyanopyridin-3-yl)methoxy)-4-((2,2′-dimethyl-3′-(3-(2-phenylmorpholino)propoxy)-[1,1′-biphenyl]-3-yl)methoxy)benzyl)piperidine-2-carboxylic Acid], 0.21 to 10 nM; in that of `Cc1c(COc2cc(OCc3cncc(C#N)c3)c(CN3CCCC[C@H]3C(=O)O)cc2Cl)cccc1-c1cccc(OCCCN2CC[C@@H](F)C2)c1C` [Example 3057, (S)-1-(5-chloro-2-((5-cyanopyridin-3-yl)methoxy)-4-((3′-(3-((R)-3-fluoropyrrolidin-1-yl)propoxy)-2,2′-dimethyl-[1,1′-biphenyl]-3-yl)methoxy)benzyl)piperidine-2-carboxylic Acid], 0.21 to 10 nM.
In the case of `Cc1c(COc2cc(OCc3cncc(C#N)c3)c(CN3CCCC[C@H]3C(=O)O)cc2Cl)cccc1-c1cccc(OCCCN2CCOC(C(F)(F)F)C2)c1C` (stereo partly drawn) [Example 3058, (2S)-1-(5-chloro-2-((5-cyanopyridin-3-yl)methoxy)-4-((2,2′-dimethyl-3′-(3-(2-(trifluoromethyl)morpholino)propoxy)-[1,1′-biphenyl]-3-yl)methoxy)benzyl)piperidine-2-carboxylic Acid] it was 0.21 to 10 nM.
The result for `Cc1c(COc2cc(OCc3cncc(C#N)c3)c(CN3CCCC[C@H]3C(=O)O)cc2Cl)cccc1-c1cccc(C(=O)N2CCN(C)CC2)c1C` [Example 3059, (S)-1-(5-chloro-2-((5-cyanopyridin-3-yl)methoxy)-4-((2,2′-dimethyl-3′-(4-methylpiperazine-1-carbonyl)-[1,1′-biphenyl]-3-yl)methoxy)benzyl)piperidine-2-carboxylic Acid] reads 100 to 2000 nM; that for `Cc1c(COc2cc(OCc3cncc(C#N)c3)c(CN3CCCC[C@H]3C(=O)O)cc2Cl)cccc1-c1cccc(C(=O)NCCN2CC[C@@H](O)C2)c1C` [Example 3060, (S)-1-(5-chloro-2-((5-cyanopyridin-3-yl)methoxy)-4-((3′-((2-((R)-3-hydroxypyrrolidin-1-yl)ethyl)carbamoyl)-2,2′-dimethyl-[1,1′-biphenyl]-3-yl)methoxy)benzyl)piperidine-2-carboxylic Acid], 10 to 100 nM.
As for `Cc1c(COc2cc(OCc3cncc(C#N)c3)c(CNCCCN(C)C)cc2Cl)cccc1-c1cccc(CNCCCN(C)C)c1` [Example 3062, 5-((4-chloro-2-(((3-(dimethylamino)propyl)amino)methyl)-5-((3′-(((3-(dimethylamino)propyl)amino)methyl)-2-methyl-[1,1′-biphenyl]-3-yl)methoxy)phenoxy)methyl)nicotinonitrile], the half-maximal inhibitory concentration (IC50) fell in the range of 100 to 2000 nM.
In the case of `Cc1c(COc2cc(OCc3cncc(C#N)c3)c(CO)cc2Cl)cccc1-c1cc(OCCCN2CC[C@@H](O)C2)cc(OCCCN2CC[C@@H](O)C2)c1` [Example 3063, 5-((5-((3′,5′-bis(3-((R)-3-hydroxypyrrolidin-1-yl)propoxy)-2-methyl-[1,1′-biphenyl]-3-yl)methoxy)-4-chloro-2-(hydroxymethyl)phenoxy)methyl)nicotinonitrile] it was 2010 to 10000 nM; in that of `Cc1c(COc2cc(OCc3cncc(C#N)c3)c(CN[C@@](C)(CO)C(=O)O)cc2Cl)cccc1-c1cc(OCCCN2CC[C@@H](O)C2)cc(OCCCN2CC[C@@H](O)C2)c1` [Example 3064, (S)-2-((4-((3′,5′-bis(3-((R)-3-hydroxypyrrolidin-1-yl)propoxy)-2-methyl-[1,1′-biphenyl]-3-yl)methoxy)-5-chloro-2-((5-cyanopyridin-3-yl)methoxy)benzyl)amino)-3-hydroxy-2-methylpropanoic Acid], 2010 to 10000 nM; in that of `Cc1c(COc2cc(OCc3cncc(C#N)c3)c(CN[C@@H](CO)C(=O)O)cc2Cl)cccc1-c1cc(OCCCN2CC[C@@H](O)C2)cc(OCCCN2CC[C@@H](O)C2)c1` [Example 3065, (S)-2-((4-((3′,5′-bis(3-((R)-3-hydroxypyrrolidin-1-yl)propoxy)-2-methyl-[1,1′-biphenyl]-3-yl)methoxy)-5-chloro-2-((5-cyanopyridin-3-yl)methoxy)benzyl)amino)-3-hydroxypropanoic Acid], 10 to 100 nM.
In the case of `CCOC(=O)[C@H](CO)NCc1cc(Cl)c(OCc2cccc(-c3cccc(OCCCN4CC[C@@H](O)C4)c3C)c2C)cc1OCc1cncc(C#N)c1` [Example 3066, (S)-ethyl 2-((5-chloro-2-((5-cyanopyridin-3-yl)methoxy)-4-((3′-(3-((R)-3-hydroxypyrrolidin-1-yl)propoxy)-2,2′-dimethyl-[1,1′-biphenyl]-3-yl)methoxy)benzyl)amino)-3-hydroxypropanoate] it was 0.21 to 10 nM; in that of `COC(=O)[C@@H]1CCCCN1Cc1cc(Cl)c(OCc2cccc(-c3cccc(OCCCN4CC[C@@H](O)C4)c3C)c2C)cc1OCc1cncc(C#N)c1` [Example 3067, methyl (S)-1-(5-chloro-2-((5-cyanopyridin-3-yl)methoxy)-4-((3′-(3-((R)-3-hydroxypyrrolidin-1-yl)propoxy)-2,2′-dimethyl-[1,1′-biphenyl]-3-yl)methoxy)benzyl)piperidine-2-carboxylate], 0.21 to 10 nM.
The result for `Cc1c(COc2cc(OCc3cncc(C#N)c3)c(CN3CCCCC3(C)C(=O)O)cc2Cl)cccc1-c1cccc(OCCCN2CC[C@@H](O)C2)c1C` (stereo partly drawn) [Example 3068, 1-(5-chloro-2-((5-cyanopyridin-3-yl)methoxy)-4-((3′-(3-((R)-3-hydroxypyrrolidin-1-yl)propoxy)-2,2′-dimethyl-[1,1′-biphenyl]-3-yl)methoxy)benzyl)-2-methylpiperidine-2-carboxylic Acid] reads 0.21 to 10 nM; that for `COC(=O)C1(C)CCCCN1Cc1cc(Cl)c(OCc2cccc(-c3cccc(OCCCN4CC[C@@H](O)C4)c3C)c2C)cc1OCc1cncc(C#N)c1` (stereo partly drawn) [Example 3069, methyl 1-(5-chloro-2-((5-cyanopyridin-3-yl)methoxy)-4-((3′-(3-((R)-3-hydroxypyrrolidin-1-yl)propoxy)-2,2′-dimethyl-[1,1′-biphenyl]-3-yl)methoxy)benzyl)-2-methylpiperidine-2-carboxylate], 0.21 to 10 nM.
